Results reported in PubChem BioAssay AID248 (DTP/NCI, 2004).
Values joined by “and” are separate entries in the source; they are usually repeats but may differ in a detail not shown here. Identical values can stand only once. Inconclusive results and toxic doses are left out. Cut-off read from the data, not from the text of the source: active = T/C of 150% or more; inactive = T/C below 125%.

Test system: L1210 leukemia ip in BDF1 mice, survival T/C
Assay: NCI In Vivo Anticancer Drug Screen. Data for tumor model L1210 Leukemia (intraperitoneal) in B6D2F1 (BDF1) mice
Conditions: endpoint: mean survival time, higher = longer survival
Outline: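 Transplantable tumor model; survival measured in treated vs vehicle control mice. Value = treated/control.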

[1] = dose: 50.0 mg/kg/injection, schedule: Q01DX009 (ip), vehicle: saline with Tween-80
[2] = dose: 100.0 mg/kg/injection, schedule: Q01DX009 (ip), vehicle: saline with Tween-80
[3] = dose: 100.0 mg/kg/injection, schedule: Q04DX003 (ip), vehicle: saline with Tween-80
[4] = dose: 200.0 mg/kg/injection, schedule: Q01DX009 (ip), vehicle: saline with Tween-80
[5] = dose: 200.0 mg/kg/injection, schedule: Q04DX003 (ip), vehicle: saline with Tween-80
[6] = dose: 400.0 mg/kg/injection, schedule: Q04DX003 (ip), vehicle: saline with Tween-80
[7] = dose: 50.0 mg/kg/injection, schedule: Q04DX002 (ip), vehicle: Klucel (hydroxypropylcellulose) (HPC)
[8] = dose: 100.0 mg/kg/injection, schedule: Q04DX002 (ip), vehicle: Klucel (hydroxypropylcellulose) (HPC)
[9] = dose: 200.0 mg/kg/injection, schedule: Q04DX002 (ip), vehicle: Klucel (hydroxypropylcellulose) (HPC)

Measured: T/C

Cc1cc2nc3[nH]c4c(Cl)cc(Cl)cc4c3nc2cc1C
inactive: dose: 100.0 mg/kg/injection, schedule: Q01DX001 (ip), vehicle: saline 91 % of control | dose: 200.0 mg/kg/injection, schedule: Q01DX001 (ip), vehicle: saline 89 % of control | dose: 400.0 mg/kg/injection, schedule: Q01DX001 (ip), vehicle: saline 89 % of control

CCCCN(CCCC)C(=O)C1C=C2c3cccc4[nH]cc(c34)CC2N(C#N)C1 (centres undefined)
inactive: dose: 25.0 mg/kg/injection, schedule: Q01DX009 (ip), vehicle: saline with Tween-80 97 % of control | [1] 91 % of control | [2] 94 % of control | [3] 101 % of control | [4] 87 % of control | [5] 100 % of control | [6] 96 % of control

COC(=O)/C=C1/OC(=O)CC1(C)C
inactive: dose: 100.0 mg/kg/injection, schedule: Q01DX001 (ip), vehicle: Klucel (hydroxypropylcellulose) (HPC) 106 % of control | dose: 100.0 mg/kg/injection, schedule: Q01DX009 (ip), vehicle: saline sonified 100 % of control | dose: 200.0 mg/kg/injection, schedule: Q01DX001 (ip), vehicle: Klucel (hydroxypropylcellulose) (HPC) 104 % of control | dose: 200.0 mg/kg/injection, schedule: Q01DX009 (ip), vehicle: saline sonified 96 % of control | dose: 400.0 mg/kg/injection, schedule: Q01DX001 (ip), vehicle: Klucel (hydroxypropylcellulose) (HPC) 107 % of control | dose: 400.0 mg/kg/injection, schedule: Q01DX009 (ip), vehicle: saline sonified 100 % of control

CC(C)(C#N)N=NC(C)(C)C#N
inactive: dose: 25.0 mg/kg/injection, schedule: Q01DX009 (ip), vehicle: alcohol 96 % of control | dose: 50.0 mg/kg/injection, schedule: Q01DX009 (ip), vehicle: alcohol 96 % of control | dose: 50.0 mg/kg/injection, schedule: Q04DX003 (ip), vehicle: alcohol 98 % of control | dose: 100.0 mg/kg/injection, schedule: Q04DX003 (ip), vehicle: alcohol 95 % of control

C=CCCCCCCCCC(=O)NN1CCOCC1
inactive: [3] 98 % of control | [5] 92 % of control | [6] 92 % of control

Oc1ccc(Cl)c2c1CCC2
inactive: [1] 110 % of control | [2] 102 % of control | [3] 101 % of control | [4] 104 % of control | [5] 101 % of control

COc1ccc2c(C)c(Br)sc2c1
inactive: dose: 100.0 mg/kg/injection, schedule: Q01DX001 (ip), vehicle: carboxymethylcellulose (CMC) 89 % of control | dose: 200.0 mg/kg/injection, schedule: Q01DX001 (ip), vehicle: carboxymethylcellulose (CMC) 94 % of control | dose: 400.0 mg/kg/injection, schedule: Q01DX001 (ip), vehicle: carboxymethylcellulose (CMC) 94 % of control

OC(Cn1cnc2ccccc21)c1ccccc1 (centres undefined)
inactive: dose: 100.0 mg/kg/injection, schedule: Q04DX003 (ip), vehicle: Klucel (hydroxypropylcellulose) (HPC) 96 % of control | dose: 200.0 mg/kg/injection, schedule: Q04DX003 (ip), vehicle: Klucel (hydroxypropylcellulose) (HPC) 97 % of control | dose: 400.0 mg/kg/injection, schedule: Q04DX003 (ip), vehicle: Klucel (hydroxypropylcellulose) (HPC) 94 % of control

COc1cc2cc3c4cc(OC)c(OC)cc4cc[n+]3c(CCC(=O)O)c2cc1OC (tested in a mixture with another compound)
inactive: [7] 103 % of control | [8] 98 % of control | [9] 103 % of control

CN(C)C(=O)NC1CCc2ccccc21 (centres undefined)
inactive: dose: 100.0 mg/kg/injection, schedule: Q01DX001 (ip), vehicle: other 95 % of control | dose: 200.0 mg/kg/injection, schedule: Q01DX001 (ip), vehicle: other 93 % of control | dose: 400.0 mg/kg/injection, schedule: Q01DX001 (ip), vehicle: other 93 % of control

CC(=O)N1Cc2ccc(/C=C(/C#N)C(N)=O)n2Cc2cc3c(cc21)OCO3
inactive: dose: 25.0 mg/kg/injection, schedule: Q04DX002 (ip), vehicle: Klucel (hydroxypropylcellulose) (HPC) 91 % of control | [7] 98 % of control | [8] 91 % of control

CCOP(OCC)N1CCCCCC1=O
inactive: [3] 100 % of control | [5] 95 % of control | [6] 89 % of control

CCCCCCCCCCCCCCCCCC[N+](C)(C)C (tested in a mixture with another compound)
inactive: dose: 0.2 mg/kg/injection, schedule: Q01DX015 (ip), vehicle: saline 104 % of control | dose: 0.5 mg/kg/injection, schedule: Q01DX015 (ip), vehicle: saline 98 % of control | dose: 1.0 mg/kg/injection, schedule: Q01DX009 (ip), vehicle: saline 108 % of control | dose: 1.0 mg/kg/injection, schedule: Q01DX015 (ip), vehicle: saline 104 % of control | dose: 2.0 mg/kg/injection, schedule: Q01DX009 (ip), vehicle: saline 100 % of control | dose: 2.0 mg/kg/injection, schedule: Q01DX015 (ip), vehicle: carboxymethylcellulose (CMC) 96 % of control | dose: 2.0 mg/kg/injection, schedule: Q01DX015 (ip), vehicle: saline 94 % of control and 103 % of control | dose: 3.0 mg/kg/injection, schedule: Q04DX003 (ip), vehicle: saline sonified 93 % of control | dose: 4.0 mg/kg/injection, schedule: Q01DX009 (ip), vehicle: saline 108 % of control | dose: 4.0 mg/kg/injection, schedule: Q01DX015 (ip), vehicle: carboxymethylcellulose (CMC) 93 % of control | dose: 4.0 mg/kg/injection, schedule: Q01DX015 (ip), vehicle: saline 96 % of control | dose: 5.0 mg/kg/injection, schedule: Q01DX015 (ip), vehicle: saline 103 % of control | dose: 6.0 mg/kg/injection, schedule: Q04DX003 (ip), vehicle: saline sonified 103 % of control | dose: 8.0 mg/kg/injection, schedule: Q01DX009 (ip), vehicle: saline 97 % of control | dose: 8.0 mg/kg/injection, schedule: Q01DX015 (ip), vehicle: saline 94 % of control | dose: 10.0 mg/kg/injection, schedule: Q01DX015 (ip), vehicle: saline 91 % of control | dose: 12.5 mg/kg/injection, schedule: Q01DX009 (ip), vehicle: saline 101 % of control | dose: 16.0 mg/kg/injection, schedule: Q04DX003 (ip), vehicle: saline 105 % of control | dose: 25.0 mg/kg/injection, schedule: Q01DX001 (ip), vehicle: saline 117 % of control | dose: 25.0 mg/kg/injection, schedule: Q01DX009 (ip), vehicle: saline 95 % of control | dose: 25.0 mg/kg/injection, schedule: Q04DX003 (ip), vehicle: saline 96 % of control | dose: 50.0 mg/kg/injection, schedule: Q04DX003 (ip), vehicle: saline 87 % of control

ClC1OCCOC1Cl (centres undefined)
inactive: dose: 50.0 mg/kg/injection, schedule: Q01DX009 (ip), vehicle: saline 102 % of control | dose: 100.0 mg/kg/injection, schedule: Q01DX009 (ip), vehicle: saline 91 % of control | dose: 100.0 mg/kg/injection, schedule: Q04DX003 (ip), vehicle: saline 92 % of control | dose: 200.0 mg/kg/injection, schedule: Q01DX009 (ip), vehicle: saline 100 % of control

Cc1ccc([N+](=O)[O-])cc1NC(=O)N(CC(O)c1ccccc1)C1CCCCC1 (centres undefined)
inactive: [8] 90 % of control | [9] 97 % of control | dose: 400.0 mg/kg/injection, schedule: Q04DX002 (ip), vehicle: Klucel (hydroxypropylcellulose) (HPC) 95 % of control

CCCCC(=O)N1CCCC(C)C1 (centres undefined)
inactive: [8] 105 % of control

CC1CCC2(CC1)OCC(CCl)O2 (centres undefined)
inactive: dose: 222.0 mg/kg/injection, schedule: Q01DX Z (ip), vehicle: saline 107 % of control | dose: 333.0 mg/kg/injection, schedule: Q01DX Z (ip), vehicle: saline 110 % of control | dose: 500.0 mg/kg/injection, schedule: Q01DX Z (ip), vehicle: saline 113 % of control
